Reference: PMC12343078, “PeptideMiner—neuropeptide discovery across the animal kingdom” (GigaScience, 2025)
Entries after “also recorded” stand apart in the source; their conditions may differ. Positions of bridges follow the written chain, without caps; N, C: chain ends. Non-standard residues stand in square brackets, D forms with d. Chains are numbered I, II in the order given. No end group written: not given here. Gla = N[C@@H](CC(C(=O)O)C(=O)O)C(=O)O

Target: T1, human insulin receptor-B (hIR-B) (Homo sapiens, UniProt P06213)
T1 construct: expressed in transfected cells; lysate captured on an anti-IR antibody-coated plate
T1 sequence (P06213 28-758 limits assumed): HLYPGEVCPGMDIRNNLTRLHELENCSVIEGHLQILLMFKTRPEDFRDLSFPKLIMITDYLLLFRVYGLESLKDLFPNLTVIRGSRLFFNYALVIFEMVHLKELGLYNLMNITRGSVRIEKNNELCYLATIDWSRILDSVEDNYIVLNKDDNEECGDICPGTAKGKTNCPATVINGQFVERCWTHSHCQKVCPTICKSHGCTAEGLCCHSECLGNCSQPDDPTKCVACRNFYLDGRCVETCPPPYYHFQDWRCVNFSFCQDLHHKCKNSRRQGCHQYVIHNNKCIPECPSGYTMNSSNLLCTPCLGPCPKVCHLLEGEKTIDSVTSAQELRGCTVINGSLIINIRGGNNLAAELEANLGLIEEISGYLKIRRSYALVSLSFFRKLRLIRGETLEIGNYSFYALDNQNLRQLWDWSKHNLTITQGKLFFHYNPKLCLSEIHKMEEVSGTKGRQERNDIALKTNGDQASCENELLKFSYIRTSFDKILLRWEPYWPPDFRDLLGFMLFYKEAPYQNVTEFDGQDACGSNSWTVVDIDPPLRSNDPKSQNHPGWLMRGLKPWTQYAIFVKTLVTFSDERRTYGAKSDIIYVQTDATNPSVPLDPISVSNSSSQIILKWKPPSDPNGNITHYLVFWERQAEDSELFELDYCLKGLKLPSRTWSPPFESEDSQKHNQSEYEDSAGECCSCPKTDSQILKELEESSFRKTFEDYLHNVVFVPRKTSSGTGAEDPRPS
T1 sequence (P06213 763-1382 limits assumed): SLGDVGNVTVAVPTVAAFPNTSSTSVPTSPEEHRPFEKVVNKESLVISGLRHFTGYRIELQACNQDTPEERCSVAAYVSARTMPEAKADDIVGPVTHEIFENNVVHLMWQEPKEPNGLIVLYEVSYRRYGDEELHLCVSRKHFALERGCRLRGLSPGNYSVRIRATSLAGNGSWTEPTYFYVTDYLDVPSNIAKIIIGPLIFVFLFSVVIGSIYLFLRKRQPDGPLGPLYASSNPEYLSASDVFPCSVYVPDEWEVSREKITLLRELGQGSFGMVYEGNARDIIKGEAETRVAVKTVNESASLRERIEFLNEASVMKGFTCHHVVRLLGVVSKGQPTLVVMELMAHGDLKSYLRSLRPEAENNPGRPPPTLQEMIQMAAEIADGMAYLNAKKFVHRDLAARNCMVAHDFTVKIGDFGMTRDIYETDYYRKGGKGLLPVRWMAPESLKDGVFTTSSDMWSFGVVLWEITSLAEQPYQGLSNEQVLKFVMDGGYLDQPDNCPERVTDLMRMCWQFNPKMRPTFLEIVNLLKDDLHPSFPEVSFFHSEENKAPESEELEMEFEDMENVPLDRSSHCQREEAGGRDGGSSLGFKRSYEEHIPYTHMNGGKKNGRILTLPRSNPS
Test: Competition binding to hIR-B against Eu-labeled human insulin
Description: Receptor binding was measured as described previously. […] Cells were serum-starved for 4 hours before lysis. Lysates were captured in a 96-well plate previously coated with anti-IR antibody. […] After washing, time-resolved fluorescence was measured using 340-nm excitation and 612-nm emission filters with the BMG Lab Technologies Polarstar fluorometer.

Row | Substance | hIR-B binding, result in words
1 | I: NSDTPKHRCGSELADQYVYLCHGERNDA-NH2 / II: GIV[Gla]VCCDNPCTVATLRTFCH (disulfide I:9-II:7, I:21-II:20, II:6-II:11; C-terminus assumed) [Con-Ins G4b] | low nanomolar binding
2 | I: NSDTPKHRCVSELADQYVQLCH-NH2 / II: GIV[Gla]VCCDNPCTVATLRTFCH (disulfide I:9-II:7, I:21-II:20, II:6-II:11; C-terminus assumed) [Con-Ins G3c] | completely abolishes hIR-B binding
3 | I: TNIPATLILQKHRCGSELADQYVQLCH-NH2 / II: GIV[Gla]VCCDNPCTVATLRTFCH (disulfide I:14-II:7, I:26-II:20, II:6-II:11; C-terminus assumed) [Con-Ins G7] | potent hIR-B binding; also recorded: low nanomolar binding
